Source: PubChem BioAssay AID248 (DTP/NCI, 2004)
Values joined by “and” are separate entries in the source; they are usually repeats but may differ in a detail not shown here. Equal entries are not always repeated. Toxic doses and inconclusive results are not listed. Rule as the data show it: active = T/C of 150% or more; inactive = T/C below 125%.

Test system: L1210 leukemia ip in BDF1 mice, survival T/C
Experiment: NCI In Vivo Anticancer Drug Screen. Data for tumor model L1210 Leukemia (intraperitoneal) in B6D2F1 (BDF1) mice
Details: endpoint: mean survival time, higher = longer survival
In short: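 Ratio derived from survival: compound-dosed mice over vehicle-dosed mice, all bearing a transplantable tumor.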

[1] = dose: 50.0 mg/kg/injection, schedule: Q01DX009 (ip), vehicle: saline with Tween-80
[2] = dose: 100.0 mg/kg/injection, schedule: Q01DX009 (ip), vehicle: saline with Tween-80
[3] = dose: 200.0 mg/kg/injection, schedule: Q01DX009 (ip), vehicle: saline with Tween-80
[4] = dose: 50.0 mg/kg/injection, schedule: Q04DX003 (ip), vehicle: saline with Tween-80
[5] = dose: 100.0 mg/kg/injection, schedule: Q01DX001 (ip), vehicle: saline
[6] = dose: 100.0 mg/kg/injection, schedule: Q04DX003 (ip), vehicle: saline with Tween-80
[7] = dose: 200.0 mg/kg/injection, schedule: Q01DX001 (ip), vehicle: saline
[8] = dose: 400.0 mg/kg/injection, schedule: Q01DX001 (ip), vehicle: saline
[9] = dose: 50.0 mg/kg/injection, schedule: Q01DX001 (ip), vehicle: carboxymethylcellulose (CMC)
[10] = dose: 100.0 mg/kg/injection, schedule: Q01DX001 (ip), vehicle: carboxymethylcellulose (CMC)
[11] = dose: 200.0 mg/kg/injection, schedule: Q01DX001 (ip), vehicle: carboxymethylcellulose (CMC)
[12] = dose: 400.0 mg/kg/injection, schedule: Q01DX001 (ip), vehicle: carboxymethylcellulose (CMC)
[13] = dose: 100.0 mg/kg/injection, schedule: Q04DX003 (ip), vehicle: saline
[14] = dose: 100.0 mg/kg/injection, schedule: Q01DX009 (ip), vehicle: Klucel (hydroxypropylcellulose) (HPC)
[15] = dose: 200.0 mg/kg/injection, schedule: Q01DX009 (ip), vehicle: Klucel (hydroxypropylcellulose) (HPC)
[16] = dose: 400.0 mg/kg/injection, schedule: Q01DX009 (ip), vehicle: Klucel (hydroxypropylcellulose) (HPC)

Measured: T/C

Cc1cc(C)c(C)[nH]1
inactive: dose: 6.25 mg/kg/injection, schedule: Q01DX009 (ip), vehicle: water 104 % of control | dose: 12.5 mg/kg/injection, schedule: Q01DX009 (ip), vehicle: water 101 % of control | dose: 25.0 mg/kg/injection, schedule: Q01DX009 (ip), vehicle: water 114 % of control | dose: 50.0 mg/kg/injection, schedule: Q01DX009 (ip), vehicle: water 105 % of control and 121 % of control

O=C1OC2CC1(O)CC(O)C2O (stereo not drawn)
inactive: [1] 92 % of control | [2] 94 % of control | [3] 92 % of control

CN(C)Cc1ccncc1
inactive: dose: 50.0 mg/kg/injection, schedule: Q01DX001 (ip), vehicle: saline 101 % of control | [1] 93 % of control | [4] 92 % of control | [5] 101 % of control | [2] 101 % of control | [6] 92 % of control | [7] 101 % of control | [3] 96 % of control | dose: 200.0 mg/kg/injection, schedule: Q04DX003 (ip), vehicle: saline with Tween-80 95 % of control

[O-]/[N+](=C\c1ccc(/C=[N+](\[O-])c2ccccc2)cc1)c1ccccc1
inactive: dose: 5.0 mg/kg/injection, schedule: Q01DX001 (ip), vehicle: saline 97 % of control | dose: 10.0 mg/kg/injection, schedule: Q01DX001 (ip), vehicle: saline 95 % of control | dose: 20.0 mg/kg/injection, schedule: Q01DX001 (ip), vehicle: saline 97 % of control | dose: 40.0 mg/kg/injection, schedule: Q01DX001 (ip), vehicle: saline 92 % of control | dose: 80.0 mg/kg/injection, schedule: Q01DX001 (ip), vehicle: saline 97 % of control

CCOC(=O)C12CCC(C(=O)O)(CC1)CC2
inactive: dose: 75.0 mg/kg/injection, schedule: Q04DX002 (ip), vehicle: Klucel (hydroxypropylcellulose) (HPC) 100 % of control | dose: 150.0 mg/kg/injection, schedule: Q04DX002 (ip), vehicle: Klucel (hydroxypropylcellulose) (HPC) 106 % of control | dose: 300.0 mg/kg/injection, schedule: Q04DX002 (ip), vehicle: Klucel (hydroxypropylcellulose) (HPC) 110 % of control

CNC(C)COc1ccccc1 (stereo not drawn)
inactive: dose: 25.0 mg/kg/injection, schedule: Q01DX009 (ip), vehicle: saline 101 % of control | dose: 25.0 mg/kg/injection, schedule: Q04DX003 (ip), vehicle: saline with Tween-80 94 % of control | dose: 50.0 mg/kg/injection, schedule: Q01DX009 (ip), vehicle: saline 98 % of control | [4] 91 % of control | [6] 95 % of control

NC(N)=NC(N)=NCc1ccc(S(N)(=O)=O)cc1
inactive: [5] 102 % of control | dose: 100.0 mg/kg/injection, schedule: Q01DX009 (ip), vehicle: saline 96 % of control | [7] 94 % of control | dose: 200.0 mg/kg/injection, schedule: Q01DX009 (ip), vehicle: saline 100 % of control | [8] 103 % of control | dose: 400.0 mg/kg/injection, schedule: Q01DX009 (ip), vehicle: saline 97 % of control

COc1ccc(NC(=S)NC(=O)COc2ccccc2)cc1
inactive: [2] 101 % of control and 107 % of control | dose: 100.0 mg/kg/injection, schedule: Q04DX002 (ip), vehicle: saline with Tween-80 107 % of control and 87 % of control | [3] 102 % of control | dose: 200.0 mg/kg/injection, schedule: Q04DX002 (ip), vehicle: saline with Tween-80 100 % of control and 90 % of control | dose: 400.0 mg/kg/injection, schedule: Q01DX009 (ip), vehicle: saline with Tween-80 89 % of control | dose: 400.0 mg/kg/injection, schedule: Q04DX002 (ip), vehicle: saline with Tween-80 106 % of control

COc1ccc(C2(O)C3CCC(C3)C2(C)C)cc1 (stereo not drawn)
inactive: [9] 89 % of control | [10] 89 % of control | [11] 89 % of control | [12] 95 % of control

CC(=O)N1CCOCC1
inactive: [13] 93 % of control | dose: 200.0 mg/kg/injection, schedule: Q04DX003 (ip), vehicle: saline 98 % of control | dose: 400.0 mg/kg/injection, schedule: Q04DX003 (ip), vehicle: saline 102 % of control

O=C(c1ccccc1)N(c1ccccc1)c1ccccc1
inactive: [9] 107 % of control | [10] 101 % of control | [11] 107 % of control | [12] 103 % of control

Cc1cc(C(c2ccccc2)c2ccccc2)cc(C)c1O
inactive: dose: 100.0 mg/kg/injection, schedule: Q01DX001 (ip), vehicle: Klucel (hydroxypropylcellulose) (HPC) 98 % of control | dose: 200.0 mg/kg/injection, schedule: Q01DX001 (ip), vehicle: Klucel (hydroxypropylcellulose) (HPC) 93 % of control | dose: 400.0 mg/kg/injection, schedule: Q01DX001 (ip), vehicle: Klucel (hydroxypropylcellulose) (HPC) 92 % of control

OCCCc1cc(Cl)ccc1O
inactive: [9] 100 % of control | [10] 100 % of control | [11] 94 % of control | [12] 92 % of control

O=C(Nc1ccc(I)cc1)Nc1cc(C(F)(F)F)ccc1Cl
inactive: [14] 100 % of control | [15] 93 % of control | [16] 88 % of control

C[PH+](c1ccccc1)c1ccccc1.C[PH+](c1ccccc1)c1ccccc1.O=C([S-])[S-].[Pt+2]
inactive: dose: 75.0 mg/kg/injection, schedule: Q04DX003 (ip), vehicle: saline 97 % of control | dose: 150.0 mg/kg/injection, schedule: Q04DX003 (ip), vehicle: saline 92 % of control | dose: 300.0 mg/kg/injection, schedule: Q04DX003 (ip), vehicle: saline 100 % of control

OC(c1ccc(Cl)cc1)(c1ccc(Cl)cc1)C(F)(F)F
inactive: dose: 100.0 mg/kg/injection, schedule: Q01DX009 (sc), vehicle: olive oil, sesame oil, peanut oil 113 % of control | dose: 100.0 mg/kg/injection, schedule: Q04DX003 (sc), vehicle: olive oil, sesame oil, peanut oil 100 % of control | dose: 200.0 mg/kg/injection, schedule: Q01DX009 (sc), vehicle: olive oil, sesame oil, peanut oil 101 % of control | dose: 200.0 mg/kg/injection, schedule: Q04DX003 (sc), vehicle: olive oil, sesame oil, peanut oil 97 % of control | dose: 400.0 mg/kg/injection, schedule: Q04DX003 (sc), vehicle: olive oil, sesame oil, peanut oil 113 % of control

N#CCCSCCSCCC#N
inactive: [14] 95 % of control | [15] 97 % of control | [16] 101 % of control

O=C1NC(=O)C(Cl)(c2ccccc2)C(=O)N1
inactive: dose: 25.0 mg/kg/injection, schedule: Q04DX003 (ip), vehicle: saline 99 % of control | dose: 50.0 mg/kg/injection, schedule: Q04DX003 (ip), vehicle: saline 87 % of control | [13] 96 % of control

CC(=O)Nc1ncnc2n[nH]c(C#N)c12
inactive: dose: 50.0 mg/kg/injection, schedule: Q01DX005 (ip), vehicle: saline with Tween-80 108 % of control | dose: 100.0 mg/kg/injection, schedule: Q01DX005 (ip), vehicle: saline with Tween-80 106 % of control

c1cnc(N2CCCCC2)cn1
inactive: [5] 94 % of control | [7] 96 % of control | [8] 102 % of control

CC12CCC(O)CC1=CCC1C2CCC2(C)c3nc(C#N)c(=N)n(O)c3CC12 (stereo not drawn)
inactive: dose: 100.0 mg/kg/injection, schedule: Q04DX002 (ip), vehicle: Klucel (hydroxypropylcellulose) (HPC) 94 % of control | dose: 200.0 mg/kg/injection, schedule: Q04DX002 (ip), vehicle: Klucel (hydroxypropylcellulose) (HPC) 105 % of control
